Measurements published in US10722512B2, “Combinations of histone deacetylase inhibitors and either HER2 inhibitors or PI3K inhibitors” (Acetylon Pharmaceuticals, Inc., priority 2013, dated 2020).

Legend:
Format in all cases: cell-based
SK-BR-3 = assay: Breast cancer cell viability, 48 hours, MTA assay; details: 48 hours; for IC50: Homo sapiens, SK-BR-3, single agent, read-out: IC50; for Synergy: SK-BR-3, combination with cmpd A, Chou-Talalay CI
Text: (§1) Cell viabilities were used to calculate “Fraction Affected” (Fa) and “Combination Index” (CI) values using the Chou-Talalay method. Any combination with a CI value<0.70 at a Fa value between 0.25 and 0.75 was defined as positive synergy.

MDA-MB-436 = assay: Breast cancer cell viability, 48 hours, MTA assay; details: 48 hours; for IC50: Homo sapiens, MDA-MB-436, single agent, read-out: IC50
Text: as §1

Hs578T = assay: Breast cancer cell viability, 48 hours, MTA assay; details: Hs578T, 48 hours; for IC50: Homo sapiens, Hs-578T, single agent, read-out: IC50; for Synergy: combination with cmpd A, Chou-Talalay CI
Text: as §1

MX-1 = assay: Breast cancer cell viability, 48 hours, MTA assay; details: 48 hours; for IC50: Homo sapiens, MX1, MX-1, single agent, read-out: IC50; for Synergy: MX-1, combination with cmpd A, Chou-Talalay CI
Text: as §1

MDA-MB-361 = assay: Breast cancer cell viability, 48 hours, MTA assay; details: 48 hours; for IC50: Homo sapiens, MDA-MB-361, single agent, read-out: IC50
Text: as §1

HCC38 = assay: Breast cancer cell viability, 48 hours, MTA assay; details: 48 hours; for Synergy: HCC38, combination with cmpd A, Chou-Talalay CI; for IC50: Homo sapiens, HCC38, single agent, read-out: IC50
Text: as §1

HCC1937 = assay: Breast cancer cell viability, 48 hours, MTA assay; details: 48 hours; for Synergy: HCC1937, combination with cmpd A, Chou-Talalay CI; for IC50: Homo sapiens, HCC1937, single agent, read-out: IC50
Text: as §1

MDA-MB-453 = assay: Breast cancer cell viability, 48 hours, MTA assay; details: 48 hours; for IC50: Homo sapiens, MDA-MB-453, single agent, read-out: IC50
Text: as §1

MDA-MB-231 = assay: Breast cancer cell viability, 48 hours, MTA assay; details: 48 hours; for IC50: Homo sapiens, MDA-MB-231, single agent, read-out: IC50; for Synergy: MDA-MB-231, combination with cmpd A, Chou-Talalay CI
Text: as §1

T-47D* = assay: Breast cancer cell viability, 48 hours, MTA assay; details: T-47D*, 48 hours; for IC50: Homo sapiens, T47D, single agent, read-out: IC50; for Synergy: combination with cmpd A, Chou-Talalay CI
Text: as §1

Bcap-37 = assay: Breast cancer cell viability, 48 hours, MTA assay; details: 48 hours; for Synergy: Bcap-37, combination with cmpd A, Chou-Talalay CI; for IC50: Homo sapiens, Bcap37, Bcap-37, single agent, read-out: IC50
Text: as §1

MCF-7 = assay: Breast cancer cell viability, 48 hours, MTA assay; details: 48 hours; for IC50: Homo sapiens, MCF7, MCF-7, single agent, read-out: IC50
Text: as §1

ZR-75-1 = assay: Breast cancer cell viability, 48 hours, MTA assay; details: 48 hours; for IC50: Homo sapiens, ZR-75-1, single agent, read-out: IC50; for Synergy: ZR-75-1, combination with cmpd A, Chou-Talalay CI
Text: as §1

BT474 = assay: Breast cancer cell viability, 48 hours, MTA assay; details: 48 hours; for Synergy: BT474, combination with cmpd A, Chou-Talalay CI; for IC50: Homo sapiens, BT-474, BT474, single agent, read-out: IC50
Text: as §1

MDA-MB-468 = assay: Breast cancer cell viability, 48 hours, MTA assay; details: 48 hours; for IC50: Homo sapiens, MDA-MB-468, single agent, read-out: IC50; for Synergy: MDA-MB-468, combination with cmpd A, Chou-Talalay CI
Text: as §1

BT-549 = assay: Breast cancer cell viability, 48 hours, MTA assay; details: 48 hours; for Synergy: BT-549, combination with cmpd A, Chou-Talalay CI; for IC50: Homo sapiens, BT-549, single agent, read-out: IC50
Text: as §1

[1] = system: Her2+ breast cancer cells

| SMILES | IC50 (SK-BR-3) [µM] | Synergy (SK-BR-3) | IC50 (MDA-MB-436) [µM] | IC50 (Hs578T) [µM] | Synergy (Hs578T) | IC50 (MX-1) [µM] | Synergy (MX-1) | IC50 (MDA-MB-361) [µM] | Synergy (HCC38) | IC50 (HCC38) [µM] | Synergy (HCC1937) | IC50 (HCC1937) [µM] | IC50 (MDA-MB-453) [µM] | IC50 (MDA-MB-231) [µM] | Synergy (MDA-MB-231) | IC50 (T-47D*) [µM] | Synergy (T-47D*) | Synergy (Bcap-37) | IC50 (Bcap-37) [µM] | IC50 (MCF-7) [µM] | further results |
| --- | --- | --- | --- | --- | --- | --- | --- | --- | --- | --- | --- | --- | --- | --- | --- | --- | --- | --- | --- | --- | --- |
| COc1cccc2c1C(=O)c1c(O)c3c(c(O)c1C2=O)C[C@@](O)(C(=O)CO)C[C@@H]3O[C@H]1C[C@H](N)[C@H](O)[C@H](C)O1 [Doxorubicin] | 0.12 | S (Any combination with a CI value<0.70 at a Fa value between 0.25 and 0.75 was defined as positive synergy) | 0.17 | 1.56 | S (Any combination with a CI value<0.70 at a Fa value between 0.25 and 0.75 was defined as positive synergy) | 0.24 | S (Any combination with a CI value<0.70 at a Fa value between 0.25 and 0.75 was defined as positive synergy) | 0.17 | S (Any combination with a CI value<0.70 at a Fa value between 0.25 and 0.75 was defined as positive synergy) | 0.18 | S (Any combination with a CI value<0.70 at a Fa value between 0.25 and 0.75 was defined as positive synergy) | 0.24 | 0.22 | 0.73 | S (Any combination with a CI value<0.70 at a Fa value between 0.25 and 0.75 was defined as positive synergy) | 0.15 | S (Any combination with a CI value<0.70 at a Fa value between 0.25 and 0.75 was defined as positive synergy) | S (Any combination with a CI value<0.70 at a Fa value between 0.25 and 0.75 was defined as positive synergy) | 0.17 | 0.82 | IC50 (ZR-75-1): 0.13 µM; Synergy (ZR-75-1): S (Any combination with a CI value<0.70 at a Fa value between 0.25 and 0.75 was defined as positive synergy); Synergy (BT474): S (Any combination with a CI value<0.70 at a Fa value between 0.25 and 0.75 was defined as positive synergy); IC50 (BT474): 0.19 µM; IC50 (MDA-MB-468): 0.1 µM; Synergy (MDA-MB-468): S (Any combination with a CI value<0.70 at a Fa value between 0.25 and 0.75 was defined as positive synergy); Synergy (BT-549): S (Any combination with a CI value<0.70 at a Fa value between 0.25 and 0.75 was defined as positive synergy); IC50 (BT-549): 0.03 µM |
| CS(=O)(=O)N1CCN(Cc2cc3nc(-c4cccc5[nH]ncc45)nc(N4CCOCC4)c3s2)CC1 [GDC-0941] | 0.22 | S (Any combination with a CI value<0.70 at a Fa value between 0.25 and 0.75 was defined as positive synergy) | 3.27 | 1.11 | S (Any combination with a CI value<0.70 at a Fa value between 0.25 and 0.75 was defined as positive synergy) | 0.56 | S (Any combination with a CI value<0.70 at a Fa value between 0.25 and 0.75 was defined as positive synergy) | 3.27 | S (Any combination with a CI value<0.70 at a Fa value between 0.25 and 0.75 was defined as positive synergy) | 7.44 | S (Any combination with a CI value<0.70 at a Fa value between 0.25 and 0.75 was defined as positive synergy) | 2.45 | 0.29 | 1.69 | S (Any combination with a CI value<0.70 at a Fa value between 0.25 and 0.75 was defined as positive synergy) | 0.62 | S (Any combination with a CI value<0.70 at a Fa value between 0.25 and 0.75 was defined as positive synergy) | S (Any combination with a CI value<0.70 at a Fa value between 0.25 and 0.75 was defined as positive synergy) | 2.48 | 0.43 | Synergy (MDA-MB-436; MDA-MB-436, combination with cmpd A, Chou-Talalay CI): S (Any combination with a CI value<0.70 at a Fa value between 0.25 and 0.75 was defined as positive synergy); Synergy (MDA-MB-361; MDA-MB-361, combination with cmpd A, Chou-Talalay CI): S (Any combination with a CI value<0.70 at a Fa value between 0.25 and 0.75 was defined as positive synergy); Synergy (MDA-MB-453; MDA-MB-453, combination with cmpd A, Chou-Talalay CI): S (Any combination with a CI value<0.70 at a Fa value between 0.25 and 0.75 was defined as positive synergy); Synergy (MCF-7; MCF-7, combination with cmpd A, Chou-Talalay CI): S (Any combination with a CI value<0.70 at a Fa value between 0.25 and 0.75 was defined as positive synergy); IC50 (ZR-75-1): 0.21 µM; Synergy (ZR-75-1): S (Any combination with a CI value<0.70 at a Fa value between 0.25 and 0.75 was defined as positive synergy); Synergy (BT474): S (Any combination with a CI value<0.70 at a Fa value between 0.25 and 0.75 was defined as positive synergy); IC50 (BT474): 0.09 µM; IC50 (MDA-MB-468): 2.93 µM; Synergy (MDA-MB-468): S (Any combination with a CI value<0.70 at a Fa value between 0.25 and 0.75 was defined as positive synergy); Synergy (BT-549): S (Any combination with a CI value<0.70 at a Fa value between 0.25 and 0.75 was defined as positive synergy); IC50 (BT-549): 1.66 µM; cytotoxicity of the combination with Compound A [1]: synergistic cytotoxicity |
